We go through one compound from patent publication US20260137700A1, “PHARMACEUTICAL COMBINATION OF PRMT5 INHIBITOR AND DNA DAMAGE-INDUCING SUBSTANCE” (SK Biopharmaceuticals Co., Ltd., priority 2022, published 2026).

Test [1] concerns cancer cell lines of Table 2 (A549, A549/CR, A549/PR, CAPAN-1, NCI-H1048, MDA-MB-231, Mia PaCa-2, SNU-324, OVCAR3, PA-1, PANC-1, U-87 MG). Nature of the test: Cell viability assay (WST) with combination synergy analysis (Bliss score). The format is cell-based, human. As to conditions: combination with various DNA damage inducers, FIGS. 1 to 25; culture ended on days 7 to 9. Here is the method:
Most cell lines were obtained from the American Type Culture Collection (ATCC) or the Korean Cell Line Bank (KCLB). Combination experiments in cisplatin-resistant and paclitaxel-resistant cell lines were performed at the Asan Preclinical Evaluation center for cancer therapeutiX of Asan Medical Center, Seoul. All cell lines were maintained in appropriate growth medium for the cell line in 100-pi dishes oRT75 (75 cm2) flasks, cultured at 37° C. with 5% CO2, and passaged every 3-4 days. Growth medium conditions and cell line information are listed in Table 2, and the cells were counted using Countess (Invitrogen) to obtain the number of viable cells. Mutation and HRD status by cell type are described in Table 3.
The next day, compound-87 was diluted 1/2 to 1/4 to a concentration of 20 μM to 0.002 μM and treated at a set concentration range, and the co-administered drug was diluted 1/2 to 1/3 to a concentration of 100 μM to 0.00046 μM and treated at a 1:1 (v/v) ratio. Finally, the treatment ratio of compound-87 and the co-administered substance was between 1:20000 and 1:0.00015, and in clinical practice, compound-87: drug to be co-administered can be treated at a ratio of 1:10000 to 1:0.0001.
PANC-1 (wild-type BRCA1/BRCA2) pancreatic cancer cells were treated with compound-87 at concentrations of […], and E7016, a PARP inhibitor as a co-administered agent at concentration of 0.078, 0.156, 0.313, 0.625, 1.25, 2.5, 5, or 10 μM (FIG. 25). Cell culture was terminated on days 7 to 9, and cell viability and synergistic effect were evaluated for each combination of concentrations.
Cell viability was measured by a colorimetric assay using water-soluble tetrazolium salt (WST). […]
Results are normalized to DMSO-treated groups as 100% and expressed as the percent of viable cells upon compound addition. […]
The synergy of each compound was analyzed using Combenefit software (Cambridge Research UK, Cambridge Institute, University of Cambridge, United Kingdom), and synergy was evaluated by using Blliss (Ref: Di Veroli et al., 2016, Bioinformatics 32(18):2866-2868). […]

In test [2] the test system is human small cell lung cancer cells NCI-H1048. Nature of the test: Subcutaneous xenograft mouse model of NCI-H1048 small cell lung cancer cells, tumor growth inhibition. The format is in vivo. To be noted: day 23. Here is the method: For in vivo efficacy study in a subcutaneous xenograft mouse model of human small cell lung cancer cells NCI-H1048, co-administration of compound-87 as a PRMT5 inhibitor according to an example of the present invention and cisplatin as an alkylating agent of a chemotherapeutic agent, was performed. To produce a small cell lung cancer xenograft model, 10 million of NCI-H1048 cells were injected subcutaneously into the right flank of female nude mice, and tumor growth was monitored.
To evaluate the anticancer effect, when the tumor volume reached approximately 162 mm^3 on average, the mice were divided into four groups. The all group included a solvent-treated group (Vehicle 1 (Compound-87)+Vehicle 2 (cisplatin) group), a Compound-87 monotherapy group (50 mg/kg), a cisplatin monotherapy group (4 mg/kg), and combination therapy group of Compound-87 and cisplatin. The Compound-87 treatment group was administered orally on a 3-day administration/4-day non-administration schedule, and cisplatin was administered intraperitoneally once a week for 22 days (Day 1-Day 23). All mice were euthanized on Day 22 (Day 23).

The subject of test [3] is human pancreatic cancer cells CAPAN-1. Nature of the test: Subcutaneous xenograft mouse model of CAPAN-1 pancreatic cancer cells, tumor volume. It counts as in vivo. As to conditions: Day 31, solvent group 1,017 mm^3. Here is the method: For in vivo efficacy studies in a subcutaneous xenograft mouse model of human pancreatic cancer cells CAPAN-1, co-administration of compound-87 as a PRMT5 inhibitor according to one example of the present invention and Gemcitabine as an anti-metabolite of a chemotherapeutic agent, was performed.
To produce a pancreatic cancer xenograft model, 5 million CAPAN-1 cells were injected subcutaneously into the right flank of female nude mice, and tumor growth was monitored.
To evaluate the anticancer effect, when the tumor volume reached approximately 185 mm^3 on average, the mice were divided into six groups. The all group included the solvent-treated group (vehicle group), the compound-87 monotherapy group (25 mg/kg or 50 mg/kg), the gemcitabine monotherapy group (50 mg/kg), combination therapy group of the compound-87 (25 mg/kg or 50 mg/kg), and the gemcitabine. The vehicle A group or the compound-87 treatment group was administered orally on a 3-day administration/4-day non-administration schedule, and the vehicle B group or the gemcitabine treatment group was administered intraperitoneally twice a week.

A further test has as its system DNA damage repair genes. Nature of the test: Gene expression analysis in patient-derived xenograft mice (CTG-2534). To be noted: compound-87 oral, 3-day on/4-day off; tumors taken when solvent group reached 955 mm^3. The format is in vivo, mouse. From the text: In order to analyze changes in gene expression by PRMT5 inhibitor treatment according to one example of the present invention, patient-derived cells CTG-2534 were xenografted into mice subcutaneously, and then the mice were divided into groups, when the tumor volume reached 80 to 300 mm^3. The solvent-treated group (vehicle group) or the compound-87 treatment group was orally administered on a 3-day on/4-day off schedule. When the tumor volume of the solvent-treated group reached 955 mm^3, the tumors were separated and performed for gene expression analysis.
FIG. 30 is a heat map showing the change in expression of DNA damage repair genes using Z-score values for Log2FPKM, after compound-87 treatment were performed in patient-derived lung cancer […] cell xenograft mice. In FIG. 30, the solvent-treated group is shown in red (positive value), and the compound-87-treated group is shown in blue (negative value).

In the case of `CN1CCC(Oc2ccc3c(c2)OCCN(C[C@H](O)CN2CCc4ccccc4C2)C3=O)CC1` [Compound-87, 4-[(2R)-3-(3,4-dihydro-1H-isoquinolin-2-yl)-2-hydroxy-propyl]-8-[(1-methyl-4-piperidyl)oxy]-2,3-dihydro-1,4-benzoxazepin-5-one], the “inhibition of cell viability, combination treatment compared to single agent” value in test [1] is on record as “enhanced inhibition effects of cell viability”. Further, the partial response in test [2] (compound-87 50 mg/kg oral combined with cisplatin 4 mg/kg i.p., partial response in all mice) came to 60.6%. Further, in test [2] (compound-87 alone, 50 mg/kg oral, 3-day administration/4-day non-administration), the “tumor growth inhibition rate” value is 62.0%. Also, the tumor volume is listed as 379 mm^3 in test [3] (Compound-87 25 mg/kg oral (3 days on/4 off) in combination with gemcitabine 50 mg/kg i.p. twice a week) and 235 mm^3 in test [3] (Compound-87 50 mg/kg oral (3 days on/4 off) in combination with gemcitabine 50 mg/kg i.p. twice a week). For the same compound, the “change in expression of DNA damage repair genes (Z-score of Log2FPKM, heat map FIG. 30)” value in the test on DNA damage repair genes is “reduced expression of DNA damage repair genes”.
